Test results published in article PMC7047876, “Potent Chimeric Antimicrobial Derivatives of the Medicago truncatula NCR247 Symbiotic Peptide” (Frontiers in Microbiology, 2020).
≈ marks a conversion by molar mass, not a printed value. Peptide text beside a SMILES is read from it.

Experiments:
Type in all cases: cell-based
[1] = system: Enterococcus faecalis (ATCC 29212); assay: microbe, parasite or virus in culture; conditions: ATCC 29212, 3 h, pH 7.4; read-out: Minimal bactericidal concentration (MBC) E. f.
Source text: (§1) The pathogenic bacterial strains obtained from the ATCC (United States) and NCTC (National Collection of Type Cultures – England) were the Gram-positive: Enterococcus faecalis (ATCC 29212), Staphylococcus aureus (HNCMO112011), Listeria monocytogenes (ATCC 19111) and the Gram-negative: Pseudomonas aeruginosa (ATCC 27853), Escherichia coli (ATCC 8739), Salmonella enterica (ATCC 13076), Klebsiella pneumoniae (NCTC 13440), Acinetobacter baumannii (ATCC 17978).
(§2) Overnight bacterial cultures grown in LB were diluted and grown to OD600 = 0.2–0.6 at 37°C with shaking. After harvesting and washing bacteria in PPB, the suspensions were adjusted to OD600 = 0.1 corresponding to ∼10^7 bacteria/mL. Antimicrobial activity of the peptides and the antibiotics was determined in PPB in 96 well microplates using 10 μL bacterial suspension and 90 μL of the 2-fold serial dilutions of peptides or antibiotics. Peptides were tested from 25 μM to 0.125 μM whereas the antibiotics; carbenicillin (Cb) from Duchefa Biochemie (Prod.No. C0109.0025) and levofloxacin (Lvx) from Sigma-Aldrich (Prod.No. 28266-10MG-F) from […] to 0.1 μM. The microplates were incubated for 3 h at 37°C with 250 rpm shaking and then 5 μl from each sample was placed on LB agar and the growth of bacteria was monitored after overnight incubation at 37°C. The lowest concentration of the antimicrobial agents, which completely eliminated viable bacteria was the minimal bactericidal concentration (MBC).

[2] = system: Acinetobacter baumannii (ATCC 17978); assay: microbe, parasite or virus in culture; conditions: ATCC 17978, 3 h, pH 7.4; read-out: Minimal bactericidal concentration (MBC) A. b.
Source text: as §1, §2

[3] = system: Klebsiella pneumoniae (NCTC 13440); assay: microbe, parasite or virus in culture; conditions: NCTC 13440, 3 h, pH 7.4; read-out: Minimal bactericidal concentration (MBC) K. p.
Source text: as §1, §2

[4] = system: Pseudomonas aeruginosa (ATCC 27853); assay: microbe, parasite or virus in culture; conditions: ATCC 27853, 3 h, pH 7.4; read-out: Minimal bactericidal concentration (MBC) P. a.
Source text: as §1, §2

[5] = system: Salmonella enterica (ATCC 13076); assay: microbe, parasite or virus in culture; conditions: ATCC 13076, 3 h, pH 7.4; read-out: Minimal bactericidal concentration (MBC) S. e.
Source text: as §1, §2

[6] = system: Listeria monocytogenes (ATCC 19111); assay: microbe, parasite or virus in culture; conditions: ATCC 19111, 3 h, pH 7.4; read-out: Minimal bactericidal concentration (MBC) L. m.
Source text: as §1, §2

[7] = system: Staphylococcus aureus (HNCMO112011); assay: microbe, parasite or virus in culture; conditions: HNCMO112011, 3 h, pH 7.4; read-out: Minimal bactericidal concentration (MBC) S. a.
Source text: as §1, §2

[8] = system: Escherichia coli (ATCC 8739); assay: microbe, parasite or virus in culture; conditions: ATCC 8739, 3 h, pH 7.4; read-out: Minimal bactericidal concentration (MBC) E. c.
Source text: as §1, §2

Staphylococcus aureus = conditions: for MBC in Mueller Hinton Broth, panel (A), S. a.: 3 h; for MBC in Mueller Hinton Broth, panel (B), S. a. / MIC in Mueller Hinton Broth, panel (C), S. a.: 20 h
Source text: as §1
(§3) Ca^2+ and Mg^2+ can inhibit the antimicrobial activity of cationic peptides, therefore the MBC and MIC values were also determined in MHB, which unlike PPB contains divalent cations and allows growth of bacteria. Bacteria were grown and prepared similarly except that bacteria were resuspended in MHB. 10 μl of bacteria OD600 = 0.1, supplemented with 45 μl MHB and 45 μl of 2-fold dilution series of peptides, were cultivated for 3 and 20 h at 37°C with shaking. Optical density of each sample was measured (Hidex Sense Microplate Reader with Plate Reader Software version 5064) and 5 μl was placed on LB agar plates after 3 and 20 h treatment. The minimal inhibitory concentration (MIC) corresponded to the lowest concentration, which inhibited growth.

Escherichia coli = conditions: for MBC in Mueller Hinton Broth, panel (A), E. c.: 3 h; for MBC in Mueller Hinton Broth, panel (B), E. c. / MIC in Mueller Hinton Broth, panel (C), E. c.: 20 h
Source text: as §1, §3

Acinetobacter baumannii = conditions: for MBC in Mueller Hinton Broth, panel (A), A. b.: 3 h; for MBC in Mueller Hinton Broth, panel (B), A. b. / MIC in Mueller Hinton Broth, panel (C), A. b.: 20 h
Source text: as §1, §3

| SMILES | MBC [1] [µM] | MBC [2] [µM] | MBC [3] [µM] | MBC [4] [µM] | MBC [5] [µM] | MBC [6] [µM] | MBC [7] [µM] | MBC [8] [µM] | MBC in Mueller Hinton Broth, panel (A), S. a. (Staphylococcus aureus) [µM] | MBC in Mueller Hinton Broth, panel (B), S. a. (Staphylococcus aureus) [µM] | MIC in Mueller Hinton Broth, panel (C), S. a. (Staphylococcus aureus) [µM] | MBC in Mueller Hinton Broth, panel (A), E. c. (Escherichia coli) [µM] | MBC in Mueller Hinton Broth, panel (B), E. c. (Escherichia coli) [µM] | MIC in Mueller Hinton Broth, panel (C), E. c. (Escherichia coli) [µM] | MBC in Mueller Hinton Broth, panel (A), A. b. (Acinetobacter baumannii) [µM] | MBC in Mueller Hinton Broth, panel (B), A. b. (Acinetobacter baumannii) [µM] | MIC in Mueller Hinton Broth, panel (C), A. b. (Acinetobacter baumannii) [µM] |
| --- | --- | --- | --- | --- | --- | --- | --- | --- | --- | --- | --- | --- | --- | --- | --- | --- | --- |
| CC(C)C[C@H](NC(=O)[C@@H]1CCCN1C(=O)[C@H](CCCNC(=N)N)NC(=O)[C@H](CCCNC(=N)N)NC(=O)[C@H](CS)NC(=O)[C@H](CCC(N)=O)NC(=O)[C@@H](N)CCC(N)=O)C(=O)N[C@@H](Cc1ccc(O)cc1)C(=O)N[C@@H](CS)C(=O)N[C@@H](CCCNC(=N)N)C(=O)N[C@@H](CCCNC(=N)N)C(=O)N[C@@H](CCCNC(=N)N)C(=O)N[C@@H](Cc1c[nH]c2ccccc12)C(=O)N[C@@H](CO)C(=O)N[C@@H](Cc1c[nH]cn1)C(=O)N1CCC[C@H]1C(=O)N[C@@H](CCC(N)=O)C(=O)N[C@@H](Cc1ccccc1)C(=O)N[C@@H](CCC(=O)O)C(=O)N[C@@H](CCCCN)C(N)=O [C, NCR247C-StrepII] (H-QQCRRPLYCRRRWSHPQFEK-NH2; N-terminus assumed) | >25 | 25 (≈ 66.9 µg/mL) | >25 | 6.3 (≈ 16.8 µg/mL) | >25 | >25 | 6.3 (≈ 16.8 µg/mL) | 6.3 (≈ 16.8 µg/mL) | > 25 | >25 | >25 | > 25 | >25 | >25 | > 25 | >25 | >25 |
| CSCC[C@H](NC(=O)[C@H](CCCCN)NC(=O)[C@H](Cc1ccccc1)NC(=O)[C@H](CC(N)=O)NC(=O)[C@H](CC(C)C)NC(=O)[C@@H]1CCCN1C(=O)[C@@H](N)CCCNC(=N)N)C(=O)N[C@@H](CC(C)C)C(=O)N[C@@H](CCCNC(=N)N)C(=O)N[C@@H](Cc1ccccc1)C(=O)N[C@@H](Cc1c[nH]c2ccccc12)C(=O)NCC(=O)N[C@@H](CCC(N)=O)C(=O)N[C@@H](CCC(N)=O)C(=O)N[C@@H](CCC(N)=O)C(=O)N[C@@H](CS)C(=O)N[C@@H](CCCNC(=N)N)C(=O)N[C@@H](CCCNC(=N)N)C(=O)N1CCC[C@H]1C(=O)N[C@@H](CC(C)C)C(=O)N[C@@H](Cc1ccc(O)cc1)C(=O)N[C@@H](CS)C(=O)N[C@@H](CCCNC(=N)N)C(=O)N[C@@H](CCCNC(=N)N)C(=O)N[C@@H](CCCNC(=N)N)C(=O)N[C@@H](Cc1c[nH]c2ccccc12)C(=O)N[C@@H](CO)C(=O)N[C@@H](Cc1c[nH]cn1)C(=O)N1CCC[C@H]1C(=O)N[C@@H](CCC(N)=O)C(=O)N[C@@H](Cc1ccccc1)C(=O)N[C@@H](CCC(=O)O)C(=O)N[C@@H](CCCCN)C(N)=O [E, X1-NCR247C-StrepII] (H-RPLNFKMLRFWGQQQCRRPLYCRRRWSHPQFEK-NH2; N-terminus assumed) | 12.5 (≈ 54.4 µg/mL) | 3.1 (≈ 13.5 µg/mL) | 6.3 (≈ 27.4 µg/mL) | 3.1 (≈ 13.5 µg/mL) | 3.1 (≈ 13.5 µg/mL) | 3.1 (≈ 13.5 µg/mL) | 3.1 (≈ 13.5 µg/mL) | 3.1 (≈ 13.5 µg/mL) | 25 (≈ 109 µg/mL) | 6.3 (≈ 27.4 µg/mL) | 6.3 (≈ 27.4 µg/mL) | 25 (≈ 109 µg/mL) | 6.3 (≈ 27.4 µg/mL) | 6.3 (≈ 27.4 µg/mL) | 12.5 (≈ 54.4 µg/mL) | 6.3 (≈ 27.4 µg/mL) | 6.3 (≈ 27.4 µg/mL) |
